Test results as given in patent US12364692B2, “Topical naloxone compositions and methods for using the same” (Teikoku Pharma USA, Inc., priority 2020, dated 2025).

Tests used:
[1] = control and treatments other than hydrogen peroxide (5N hydrochloric acid, 5N sodium hydroxide 18 hours, 60° C. 2 weeks); peak areas relative to total area
[2] = test system: mice (HOS:HR-1 hairless) with atopic dermatitis skin symptoms; test: Scratching behavior in hairless mouse model of atopic dermatitis pruritis; assay type: in vivo; conditions: FIGS. 3-6; topical 0.1 ml/day, days 34, 41, 48, 55
Experimental: Atopic dermatitis skin symptoms were induced by providing a special feed diet 10 to mice (HOS:HR-1 hairless). All groups were treated with daily 0.1 ml/day of ointment over the entire back of each mouse for three consecutive weeks starting on Day 34. Mice were video recorded predose (baseline activity) for 30 minutes and observed for scratching for a period of one hour post application on days 34, 35, 38, 41, 45, 48, and 55. The topical naloxone active agent composition was allowed to dry 15 for one (1) hour prior to video recording of scratching behavior. Scratching behavior was monitored every 5 minutes for an hour where the number of scratching bouts includes one or more of the following actions: hind leg raised, scratching the back or lowering the leg to the floor. Cumulative duration of scratching behavior was also determined. Trans-epidermal water loss (TEWL) measured on Days 34, 48, 55 20 (Phase 2) and Days 33 and 55 (Phase 3) was also measured.

SMILES | total related substances [1] | cumulative scratching duration [2] | mean scratching bouts [2]
C=CCN1CC[C@]23c4c5ccc(O)c4O[C@H]2C(=O)CC[C@@]3(O)[C@H]1C5 [naloxone drug substance, naloxone] | below 1% | – | –
C=CCN1CC[C@]23c4c5ccc(O)c4O[C@H]2C(=O)CC[C@@]3(O)[C@H]1C5 [naloxone free base, naloxone] | – | decreased | decreased
